Among the test systems are SNB-75; MDA-MB-435; CCRF-CEM; M14; T47D; OVCAR-5; HOP-62; SF-268; HT-29; OVCAR-4; PC-3; NCI-H23; HOP-92; SK-MEL-28; EKVX; COLO 205; SW-620; IGROV-1; Hs-578T.
Experiment in all cases: inhibition of tumour cell growth, NCI panel, 48 h

Each structure is given as a SMILES string.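 Protocol summary: plate cells (96-well), add compound at 5 concentrations, incubate 48 h, interpolate endpoints linearly. Here, GI50 denotes the concentration required for 50% inhibition of growth.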 The source made the active and inactive calls. Rule as the data show it: active = GI50 up to about 1.1 µM and inactive = higher.

Consider `O=C(N/C(=C\NC1=NCCS1)C(=O)N1CSC[C@@H]1C(=O)O)c1ccccc1`, for which the GI50 in the assay on SNB-75, in the assay on MDA-MB-435, in the assay with CCRF-CEM, in the assay with M14, with T47D and with OVCAR-5 was > 100 µM (inactive) each time. In addition, the GI50 in the assay with HOP-62, in the assay with SF-268, with HT-29, in the assay on OVCAR-4, with PC-3 and in the assay on NCI-H23 was > 100 µM (inactive) throughout. The GI50 in the assay with HOP-92, in the assay with SK-MEL-28, in the assay on EKVX, with COLO 205 and with SW-620 was > 100 µM (inactive) in each case.

Turning to `CC(=O)Nc1ccc(NNc2cc(=O)n(C)c(=O)[nH]2)cc1`, the GI50 in the assay with MDA-MB-435 was 10.3 µM (inactive); in the assay with CCRF-CEM it was > 10 µM (inactive); with M14, 8.89 µM (inactive); with OVCAR-5, 14.1 µM (inactive); in the assay with HOP-62, 15.1 µM (inactive); in the assay with HT-29 it was 2.02 µM (inactive). Further, the GI50 is 10.2 µM (inactive) in the assay with OVCAR-4; 4 µM (inactive) with PC-3; 14.7 µM (inactive) with NCI-H23; 2 µM (inactive) in the assay with HOP-92; 11.9 µM (inactive) in the assay with SK-MEL-28; 17 µM (inactive) with EKVX. For the same compound, the GI50 in the assay with IGROV-1 was 14 µM (inactive); in the assay on COLO 205 it was 11.8 µM (inactive); with Hs-578T it was 25.6 µM (inactive); in the assay with SW-620, 2.98 µM (inactive).

As to `CCC/C=C\C=C\C1(NS(=O)(=O)c2ccc(C)cc2)CCC(C(C)(C)C)CC1` (stereo not drawn), the GI50 with SNB-75 is 23.4 µM (inactive); in the assay on CCRF-CEM, 9.1 µM (inactive); with M14, 13.3 µM (inactive); with OVCAR-5, 21.5 µM (inactive); in the assay with HOP-62 it was 20.7 µM (inactive); in the assay on SF-268, 17.4 µM (inactive). In addition, the GI50 in the assay on HT-29 is 15.5 µM (inactive); in the assay with OVCAR-4 it was 17.1 µM (inactive); with NCI-H23 it was 14.1 µM (inactive); with HOP-92, 22.9 µM (inactive); in the assay with EKVX it was 14.2 µM (inactive); in the assay with IGROV-1 it was 27 µM (inactive). Also, the figures for the GI50 in the assay on COLO 205 and in the assay with SW-620 were 14.5 µM (inactive) and 17.9 µM (inactive), respectively.

Take `O=C1Cc2ccccc2CCc2ccsc21`: the GI50 was 61.2 µM (inactive) in the assay with SNB-75; > 100 µM (inactive) with CCRF-CEM; > 100 µM (inactive) in the assay on M14; 31.3 µM (inactive) in the assay with OVCAR-5; > 100 µM (inactive) in the assay with SF-268; > 100 µM (inactive) in the assay with HT-29. In addition, the GI50 in the assay with OVCAR-4 was > 100 µM (inactive); with NCI-H23, > 100 µM (inactive); in the assay with HOP-92, 40 µM (inactive); with SK-MEL-28, > 100 µM (inactive); with EKVX it was > 100 µM (inactive); in the assay with IGROV-1, > 100 µM (inactive). The GI50 in the assay with COLO 205 and with SW-620 was > 100 µM (inactive) each time.

As to `CC(=O)CC(=O)CCCC(=O)Nc1ccc(Cl)cc1Cl`, the GI50 in the assay with SNB-75, with M14, in the assay with OVCAR-5, with HOP-62, with SF-268 and in the assay on HT-29 was > 100 µM (inactive) each time. In addition, the GI50 with OVCAR-4, with NCI-H23, with HOP-92, in the assay with SK-MEL-28, in the assay on IGROV-1 and in the assay with COLO 205 was > 100 µM (inactive) in each case. The GI50 in the assay on SW-620 is > 100 µM (inactive).

As for `O=C(NN1C(=O)c2ccccc2C1=O)c1ccccc1Nc1ccccc1C(=O)NN1C(=O)c2ccccc2C1=O`, the GI50 in the assay on SNB-75, in the assay on MDA-MB-435, in the assay with CCRF-CEM, in the assay with M14, with OVCAR-5 and with HOP-62 was > 100 µM (inactive) in each case. In addition, the GI50 with SF-268, in the assay with HT-29, in the assay with OVCAR-4, in the assay with PC-3, with NCI-H23 and with HOP-92 was > 100 µM (inactive) throughout. The GI50 with SK-MEL-28, in the assay on EKVX, with IGROV-1, in the assay with COLO 205 and with SW-620 was > 100 µM (inactive) throughout.

Consider `Cc1ccc(S(=O)(=O)CC(=O)CC(=O)C(=O)Nc2cccc(C(F)(F)F)c2)cc1`, for which the GI50 in the assay on SNB-75 was 47.6 µM (inactive); in the assay on CCRF-CEM, > 100 µM (inactive); in the assay on M14, > 100 µM (inactive); in the assay with SF-268 it was > 100 µM (inactive); in the assay on HT-29, 55.3 µM (inactive); with NCI-H23, > 100 µM (inactive). Also, the GI50 in the assay with HOP-92, in the assay with SK-MEL-28, with EKVX, in the assay on IGROV-1 and with SW-620 was > 100 µM (inactive) throughout.

For `CC(=O)OCC1OC(OCc2ccccc2)C(Br)C(OC(C)=O)C1OC(C)=O` (stereo not drawn), the GI50 in the assay with CCRF-CEM, in the assay on M14, in the assay with OVCAR-5, in the assay with HOP-62, in the assay on SF-268 and in the assay with HT-29 was > 100 µM (inactive) in each case. Also, the GI50 in the assay with OVCAR-4, in the assay with NCI-H23, with HOP-92, in the assay on SK-MEL-28, in the assay on IGROV-1 and in the assay on COLO 205 was > 100 µM (inactive) each time. Also, in the assay with SW-620, the GI50 was > 100 µM (inactive).

As for `Cc1cc(Cc2cc(C)c(NC(=O)C(=O)C3CCC4=C(SC5C=CC=CC5N4)C3=O)c(C(C)C)c2)cc(C(C)C)c1NC(=O)C(=O)C1CCC2=C(SC3C=CC=CC3N2)C1=O` (stereo not drawn), the GI50 was 94.6 µM (inactive) in the assay on SNB-75; > 100 µM (inactive) with MDA-MB-435; 46.5 µM (inactive) in the assay with CCRF-CEM; > 100 µM (inactive) with M14; 29.2 µM (inactive) in the assay with T47D; > 100 µM (inactive) in the assay with OVCAR-5. Further, the GI50 in the assay on HOP-62 was 94.4 µM (inactive); in the assay with SF-268 it was 74.8 µM (inactive); in the assay on HT-29, 58.6 µM (inactive); in the assay on OVCAR-4, 33.7 µM (inactive); in the assay with PC-3, 25.1 µM (inactive); in the assay with NCI-H23, 41.4 µM (inactive). The GI50 with HOP-92 was > 100 µM (inactive); with SK-MEL-28, > 100 µM (inactive); in the assay on EKVX, 52.7 µM (inactive); in the assay with IGROV-1, 34 µM (inactive); in the assay on COLO 205 it was 44.6 µM (inactive); with SW-620 it was 38 µM (inactive).

`Cn1c(=O)c2nc3nnc(C#N)c(N)n3c2n(C)c1=O`: the GI50 in the assay on MDA-MB-435 is > 100 µM (inactive); in the assay on CCRF-CEM it was 67.8 µM (inactive); in the assay on M14 it was > 100 µM (inactive); in the assay on T47D it was 33 µM (inactive); in the assay on OVCAR-5, > 100 µM (inactive); in the assay with HOP-62 it was > 100 µM (inactive). For the same compound, the GI50 in the assay on SF-268 was > 100 µM (inactive); with HT-29 it was > 100 µM (inactive); in the assay on OVCAR-4, > 100 µM (inactive); in the assay with PC-3 it was > 100 µM (inactive); in the assay on HOP-92 it was 31.8 µM (inactive); in the assay with SK-MEL-28, > 100 µM (inactive). The figures for the GI50 in the assay on EKVX, in the assay on IGROV-1 and with COLO 205 were > 100 µM (inactive), 87.3 µM (inactive) and > 100 µM (inactive), respectively.

`Cc1cccc(NC(=O)CC#N)c1Cl`: the GI50 in the assay with SNB-75, in the assay on CCRF-CEM, in the assay on M14, with SF-268, with HT-29 and in the assay on NCI-H23 was > 100 µM (inactive) throughout. In addition, the GI50 with HOP-92, in the assay with SK-MEL-28, in the assay on EKVX, in the assay with IGROV-1 and in the assay with SW-620 was > 100 µM (inactive) throughout.

Turning to `O=C(CBr)N1CCC2(CC1)SSC1(CCN(C(=O)CBr)CC1)S2`, the GI50 with SNB-75 was 2.01 µM (inactive); in the assay on MDA-MB-435 it was 2.12 µM (inactive); in the assay on CCRF-CEM, 0.15 µM (active); in the assay with M14 it was 1.53 µM (inactive); with OVCAR-5, 1.39 µM (inactive); with HOP-62, 1.9 µM (inactive). In addition, the GI50 was 1.81 µM (inactive) with HT-29; 2.02 µM (inactive) in the assay with OVCAR-4; 1.84 µM (inactive) in the assay on PC-3; 1.6 µM (inactive) in the assay with NCI-H23; 2.1 µM (inactive) in the assay on HOP-92; 2 µM (inactive) in the assay on SK-MEL-28. Moreover, the GI50 in the assay on COLO 205 was 0.368 µM (active); in the assay on Hs-578T, 1.72 µM (inactive); in the assay with SW-620, 0.332 µM (active).

With `CCOC1(COP(=O)(OCc2ccccc2)OCc2ccccc2)COC(COP(=O)(OCc2ccccc2)OCc2ccccc2)(OCC)CO1` (stereo not drawn), the GI50 in the assay on CCRF-CEM, in the assay on M14, in the assay with OVCAR-5, in the assay with HOP-62, in the assay on SF-268 and in the assay on HT-29 was > 100 µM (inactive) throughout. Further, the GI50 is 4.61 µM (inactive) in the assay with OVCAR-4; > 100 µM (inactive) in the assay with NCI-H23; 2.99 µM (inactive) in the assay on HOP-92; > 100 µM (inactive) in the assay with SK-MEL-28; 2.32 µM (inactive) in the assay on EKVX; > 100 µM (inactive) with IGROV-1. Also, the GI50 in the assay with COLO 205 and with SW-620 was > 100 µM (inactive) each time.

Values taken from ChEMBL document CHEMBL1201862, “PubChem BioAssay data set” (2004).
